For 18 molecules, IC50 results are on record in BindingDB's records for doi:10.1016/j.ejmech.2018.08.092 (University of Lille, 2018).

Each structure is given as a SMILES string.

The assay can be described thus: Inhibition of BACE1 in human SH-SY5Y cells harboring wild type APP695 assessed as reduction in amyloid beta (1 to 42) level after 24 hrs by ELISA method. (In general: ELISA stands for enzyme-linked immunosorbent assay.)
In general, IC50 refers to the concentration that inhibits the measured activity by half. Consider `Oc1c(CN2CCCC2)cc(Nc2ccnc3cc(Cl)ccc23)cc1CN1CCCC1`, for which the IC50 stood at 11.2 µM.
For `CN(C)Cc1ccccc1-c1ccc(NCCCCN2CCCCC2)c(OCCN2CCCCC2)c1` the value was 1.6 µM; for `CN(C)Cc1ccc(-c2ccc(NCCCN3CCCCC3)c(OCCN3CCCCC3)c2)cc1`, 1.7 µM; for `CN(C)Cc1ccccc1-c1ccc(NCCN2CCCCC2)c(OCCCCN2CCCCC2)c1`, 1.6 µM.
Next, `c1cc(-c2ccc(NCCCN3CCCCC3)c(OCCN3CCCCC3)c2)ccc1CN1CCCCC1`: 3.3 µM.
Next, `CN(C)Cc1ccccc1-c1ccc(NCCCN2CCCCC2)cc1`: 3.6 µM.
In the case of `c1cc(CN2CCCCC2)cc(-c2ccc(NCCCN3CCCCC3)c(OCCN3CCCCC3)c2)c1`, the IC50 turned out to be 4.8 µM.
For `CN(C)Cc1ccccc1-c1ccc(NCCCN2CCCCC2)c(OCCC2CCCCC2)c1` the value was 2.8 µM; for `c1ccc(-c2cccc(OCCN3CCCCC3)c2)cc1`, 13.7 µM; for `c1ccc(-c2ccc(NCCCN3CCCCC3)c(OCCN3CCCCC3)c2)c(CN2CCCCC2)c1`, 4.1 µM.
Regarding `c1ccc(-c2ccc(NCCCN3CCCCC3)c(OCCN3CCCCC3)c2)c(CN2CCOCC2)c1`, the IC50 was found to be 4.2 µM.
Next, `CN(C)Cc1ccccc1-c1ccc(NCCCN2CCCCC2)c(OCCN2CCCCC2)c1`: 3.4 µM; `CN(C)Cc1ccccc1-c1ccc(NCCN2CCCCC2)c(OCCN2CCCCC2)c1`: 1.2 µM; `c1ccc(-c2ccc(NCCCN3CCCCC3)c(OCCN3CCCCC3)c2)cc1`: 4 µM.
Next, `CN(C)Cc1ccccc1-c1cccc(OCCN2CCCCC2)c1`: 1.2 µM; `CN(C)Cc1ccn(-c2ccc(NCCCN3CCCCC3)c(OCCN3CCCCC3)c2)c1`: 6.5 µM.
Turning to `CN(C)Cc1ccccc1-c1ccc(NCCN2CCCCC2)c(OCCCN2CCCCC2)c1`, the IC50 came to 1.8 µM.
For `CC(C)CN(CCCN1CCN(CCCNc2nc3ccccc3[nH]2)CC1)CC(C)C` [(1H-Benzoimidazol-2-yl)-{3-[4-(3-diisobutylamino-propyl)-piperazin-1-yl]-propyl}-amine] the value was 2.1 µM.
